From a melting point compilation (Tetko et al.; mined from patent text by program, amines drawn as free bases though some values may be those of a salt) come the findings set out here.

`O=C(N[C@@H](Cc1ccccc1)C(=O)N1CCS(=O)CC1)c1cc2cc(Cl)ccc2[nH]1` yielded a melting point of 230 to 234 °C.

As to `COCc1cc2c(s1)CCCc1cc(=O)n(-c3ccc(C)cc3)nc1-2`, the melting point lay in the range of 109 to 110 °C.

Take `O=C1c2c(Br)cccc2-n2cnc(I)c2[C@@H]2CCCN12`: the melting point was in the range of 301 to 303 °C.

Consider `COc1ccc(C2(c3ccc(OC)cc3)CC2(Cl)Cl)cc1`, for which the melting point came to 138 °C.

The molecule `COc1ccc(C(=O)CCCCCl)cc1S(=O)(=O)NC(C)C` registered a melting point of 122 to 124 °C.

`CCc1nc2cc(C(N)=O)c(Cl)cc2n1-c1ccc(CCNC(=O)NS(=O)(=O)c2ccc(C)cc2)cc1`: the melting point was in the range of 152 to 163 °C.

In turn, `COc1ccc(-c2nc(-c3ccccc3)n(CCCCCCCC(=O)O)c2-c2ccc(OC)cc2)cc1` displayed a melting point of 149 to 150 °C.

Consider `COc1ccccc1OC(c1ccccc1)C(O)CN` (centres undefined), for which the melting point was 80 to 110 °C.

Molecule `Cc1oc(C(C)C)cc1C(=O)O` displayed a melting point of 88.5 °C.

Take `CCOP(=O)(Cc1cc(C=O)ccc1O)OCC`: the melting point fell in the range of 88 to 88.5 °C.

Molecule `N#Cc1ncccc1C(=O)ON=Cc1ccc(Cl)cc1` yielded a melting point of 160 °C.

Molecule `CCNC(=O)C1CC2(NC(=O)NC2=O)c2cc(F)ccc2O1` (centres undefined) gave a melting point of over 300 °C.

With `Cn1nc(-c2ccccc2C=O)c2ccccc21`, the melting point was 106 °C.

Regarding `O=C1CCc2cc(OCC(F)(F)C(F)(F)F)ccc21`, the melting point was 52 to 54 °C.

Consider `CC(C)(C)OC(=O)NN(Cc1ccc(-c2cnccn2)cc1)C[C@H](O)[C@@H](N)Cc1ccccc1`, for which the melting point is 146 to 148 °C.

`CCC(=O)Oc1ccc2c(c1)CCC1C2CCC2(C)C1CC(O)C2OC(=O)CC` (centres undefined) yielded a melting point of 105 °C.

The molecule `CC(CCBr)Oc1ccccc1` (centres undefined) came in with a melting point of 33 to 36 °C.

In the case of `Cn1ncc2c1-c1c(Oc3ccccc3)sc(C(=O)O)c1CC2`, the melting point lay within 259 to 261 °C.

`Cc1[nH]c2cc(C(=O)c3ccccc3)ccc2c1/C=C/C(=O)c1ccncc1` returned a melting point of 267 to 270 °C.

With `CCC(CC)CNC(=O)c1ccc2cccc(Cc3ccc(C(=O)O)cc3OC)c2c1`, the melting point lay in the range of 198 to 199 °C.

Turning to `OC1(CNCc2ccccc2)CCN(CCCc2c[nH]c3ccc(-n4cnnc4)cc23)CC1`, the melting point is over 60 °C.

Turning to `CC(C)(C)c1cc(C(=O)Nc2cccc(OCc3cccnc3)c2)ccc1O`, the melting point was 104 to 107 °C.

Take `CCc1c(-c2ccc(OC)cc2)c2cc(C(C)=O)c3cc(OC)cc1n32`: the melting point lay in the range of 137 to 139 °C.

With `COc1cccc(CC(=O)O)c1OCCCc1cn(-c2ccc(Cl)cn2)nc1C(C)C`, the melting point was 148 to 149 °C.

The molecule `CCN(CC)C(=O)c1c(S(N)(=O)=O)cc(OC)c(OC)c1C(C)C` registered a melting point of 138 to 140 °C.

For `CC1(C)Oc2cc(C#N)sc2[C@@H](N2CCCCC2=O)[C@@H]1OCc1ccccc1` (relative stereo), the melting point lay within 174 to 178 °C.

`CCC(C(C)C)C1OC1C(C)C1CCC2C3CCC4=CC(=O)CCC4(C)C3CCC12C` (centres undefined) yielded a melting point of 111 to 112 °C.

Take `CC(=Nc1cc(C(F)(F)F)cc2nc(C)n(C(C)C)c12)c1ccccc1`: the melting point was 164 to 166 °C.

`Cc1cccc(Cn2cc(-c3cn(C4CC(O)C(CO)O4)c(=O)[nH]c3=O)nn2)c1` (centres undefined) returned a melting point of 132 to 133 °C.

Molecule `COc1cc(NC(=O)c2cc3cc(F)ccc3n2Cc2cccc(F)c2)cnc1N1CCCC1` yielded a melting point of 172 to 174 °C.

In the case of `COc1ccc(CCCON2CCC(C(=O)c3nc4ccccc4s3)CC2)cc1`, the melting point is 114 to 115 °C.

The molecule `N#Cc1ncc(Br)cc1Br` came in with a melting point of 109 to 112 °C.

Regarding `CN(O)C(=O)c1ccc(CCCCc2ccc(C(=O)N(C)O)cc2)cc1`, the melting point lay within 157 to 159 °C.

On to `Cc1ccc(C(=O)Nc2ccc3[nH]cc(C4CCN(C)CC4)c3n2)s1`, for which the melting point was 123 to 127 °C.

As for `Cn1c(C(F)(F)F)cc(=O)n(-c2cc(OCc3ccc(F)cc3)c(Cl)cc2F)c1=O`, the melting point lay within 174 to 177 °C.

`COc1nc(Br)cnc1NS(=O)(=O)c1cccc2c(NC(=O)OCc3ccccc3)cccc12` returned a melting point of 226 to 228 °C.

The molecule `CCN(CC)Cn1cnc2c1c(=O)n(C)c(=O)n2C` showed a melting point of 114 to 115 °C.

In turn, `C=CS(=O)(=O)c1ccc(/C(=C\C2CCCCC2)C(=O)OC)cc1Cl` displayed a melting point of 105 to 108 °C.

The molecule `CN(C)C(=O)N(C)C(=O)N1CCN(c2ccc(F)cc2)CC1` came in with a melting point of 83 to 84 °C.

Turning to `CC(c1cccc(F)c1)n1ncc(-c2ccc(S(N)(=O)=O)cc2)c(-c2ccc(F)cc2)c1=O` (centres undefined), the melting point is 192 to 194 °C.

`Cc1c(C#N)sc2nc(Cc3ccccc3)nc(N3CCOCC3)c12` yielded a melting point of 88 to 90 °C.

As to `O=C(CCl)Nc1ccc2cc3ccc(NC(=O)CCl)cc3nc2c1`, the melting point was in the range of 95 to 100 °C.

Consider `CCCCn1nnc2cc(C(=O)O)ccc21`, for which the melting point was 192 °C.

For `Oc1cc(-c2ccc(F)cc2)nc2ccsc12`, the melting point lay within 316 to 318 °C.

Consider `CC(CO)NC(=O)c1cnc(N2CCC(N3C(=O)OCc4ccccc43)CC2)c(Cl)c1` (centres undefined), for which the melting point was 125 to 128 °C.

The molecule `CCOC(=O)N[C@H](C(=O)NN(Cc1ccc(-c2cncs2)cc1)C[C@H](O)[C@H](Cc1ccccc1)NC(=O)[C@@H](NC(=O)OC)C(C)C)C(C)C` returned a melting point of 243 to 244 °C.

The molecule `Clc1ccc(C(c2ccccc2)N2CCN(CCCn3cnc4ccccc43)CC2)cc1` (centres undefined) showed a melting point of 106 °C.

In the case of `CCN(CC)CC(=O)N1c2ccccc2N(C)S(=O)(=O)c2ccccc21`, the melting point was in the range of 161 to 162 °C.

As to `Cc1cc2oc(S(N)(=O)=O)cc2cn1`, the melting point lay within 233 to 234 °C.

`COC(=O)C(C)Oc1ccc(COc2ccc(-n3nc(C)n(C(F)F)c3=O)c(F)c2)cc1` (centres undefined) returned a melting point of 83 to 85 °C.

`NNC(=O)c1ccccc1-c1ccc([N+](=O)[O-])cc1` displayed a melting point of 194 to 196 °C.

As to `Cc1ccc(C)c(NC(=O)CCc2ccc(O)c(N)c2)c1`, the melting point lay within 162 to 163 °C.

As for `COc1ccc(S(=O)(=O)Nc2cccc3c2Nc2ccccc2S3)cc1`, the melting point is 158 to 160 °C.

In the case of `CCCCC1=Nc2ccccc2C(=O)C1`, the melting point amounted to 140 °C.

The molecule `CNCC(=O)NC(=O)N(CCCl)N=O` displayed a melting point of 86 to 88 °C.

`CCOC(=O)c1ccc(C#CCc2ccc3c(c2)C(C)(C)CCC3(C)C)cc1`: the melting point lay in the range of 59 to 60 °C.

As to `OCCCCOCCCCOCCCCOCCCCO`, the melting point amounted to 22 °C.

As for `CC(=O)N[C@@H](CSC(=O)C(C)C)C(=O)NCCSC(=O)C(C)(C)C`, the melting point is 101 to 102 °C.

In the case of `CCCc1nc2c(N)nc3cc(OCc4ccc(F)cc4)ccc3c2n1CC(C)C`, the melting point fell in the range of 198 to 200 °C.

Take `CNC(=O)n1nc(Oc2c(Cl)cc(C(F)(F)F)cc2Cl)cc1C`: the melting point was in the range of 113 to 114 °C.

As to `COc1cc(CF)nc(N)n1`, the melting point was in the range of 119 to 121 °C.

In turn, `COc1cc(OC)c2c(c1)C(C)(C)C(c1ccc(OC)c(OC)c1)C(C)C(=O)O2` (centres undefined) displayed a melting point of 163 to 165 °C.

In turn, `O=C(O)c1cc(Cl)c(F)c(F)c1F` registered a melting point of 123 to 124 °C.

`CCc1nn(CC(N)=O)c(CC)c1Oc1cccc(C#N)c1`: the melting point lay within 159 to 160 °C.

As usually defined, the melting point is the temperature of the solid-liquid transition.
